Measurements from patent US20260285880A1, “SUBSTITUTED DIHYDROTHIENOPYRIMIDINE COMPOUND, PREPARATION METHOD THEREFOR, AND USE THEREOF” (SHANGHAI YIDI BIOTECHNOLOGY CO., LTD., priority 2023, published 2026).

molecular target: Flpin-293-PDE4B2 cells (Homo sapiens, UniProt Q07343); assay: cell-based; details: read-out: Cell Inhibition % @1 nM, 1 nM, Flpin-293-PDE4B2 cells
Sequence (Q07343 1-564 isoform Q07343-2): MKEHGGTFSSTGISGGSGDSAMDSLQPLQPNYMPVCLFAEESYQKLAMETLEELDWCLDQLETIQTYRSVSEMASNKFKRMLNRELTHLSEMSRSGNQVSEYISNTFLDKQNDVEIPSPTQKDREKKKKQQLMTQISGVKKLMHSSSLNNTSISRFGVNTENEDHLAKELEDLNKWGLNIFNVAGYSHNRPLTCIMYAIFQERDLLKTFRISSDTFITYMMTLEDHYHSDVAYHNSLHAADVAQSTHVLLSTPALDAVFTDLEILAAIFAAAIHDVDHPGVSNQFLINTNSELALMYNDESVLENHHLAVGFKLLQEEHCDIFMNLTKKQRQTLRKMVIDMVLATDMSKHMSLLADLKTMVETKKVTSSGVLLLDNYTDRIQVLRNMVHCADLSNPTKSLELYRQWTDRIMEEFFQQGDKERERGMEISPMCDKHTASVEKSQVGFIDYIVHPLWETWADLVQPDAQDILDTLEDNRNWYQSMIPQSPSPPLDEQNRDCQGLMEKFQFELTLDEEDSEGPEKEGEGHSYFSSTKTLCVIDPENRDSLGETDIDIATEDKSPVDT
Description: All compounds were dissolved in DMSO into 10 mM or 20 mM stock solutions. The compound to be tested was diluted with DMSO with a 3-fold gradient. […] 40 nL/well of the compound or a DMSO control was transferred to a 384-well plate by using Echo 550 instrument. […] The plate was incubated at 37° C. for 30 minutes. Eu-cAMP tracer and Ulight-anti-cAMP were frozen and thawed and diluted in a lysis buffer. 10 of μl Eu-cAMP tracer was added to an experimental well, and 10 μl of Ulight-anti-cAMP was added to the experimental well. The reaction plate was centrifuged at 200 g at room temperature for 30 s and then left to stand at 25° C. for 1 h, and data was then collected by Envision. Inhibition %=100−(Signal compound−SignalAve positive control)/(SignalAve negative control−SignalAve positive control)×100.

| Structure (SMILES) | inhibition at 0.001 µM |
| --- | --- |
| NC(=O)c1ccc2c(c1)CCN(c1nc3c(c(NC4(CO)CCC4)n1)[S+]([O-])CC3)C2 (centres unmarked) [Compound 75] | 4.93% |
| [O-][S+]1CCc2nc(N3CCc4c(c(NCCO)nc5cc(Cl)ccc45)C3)nc(NC3(CO)CCC3)c21 (centres unmarked) [Compound 103] | 2.83% |
| [O-][S+]1CCc2nc(N3CCc4cc(N5C[C@H]6COC[C@H]6C5)ccc4C3)nc(NC3(CO)CCC3)c21 (some centres unmarked) [Compound 178] | 8.53% |
| C[C@H]1c2ccc(N3CCC(F)(F)C3)cc2CCN1c1nc2c(c(NC3(CO)CCC3)n1)[S+]([O-])CC2 (some centres unmarked) [Compound 224] | 10.7% |
| [O-][S+]1CCc2nc(N3CCc4cc(N5CC(F)(F)C5)ccc4C3)nc(NC3(CO)CCC3)c21 (centres unmarked) [Compound 88] | 3.67% |
| CN1CCN(c2ccc3c(c2)CCN(c2nc4c(c(NC5(CO)CCC5)n2)[S+]([O-])CC4)C3)C1=O (centres unmarked) [Compound 86] | 8.69% |
| [O-][S+]1CCc2nc(N3CC[C@@H]4c5cc(Cl)ccc5OC[C@H]4C3)nc(NC3(CO)CCC3)c21 (some centres unmarked) [Compound 108] | -0.82% |
| Cn1cc(Nc2nc(N3CCc4cc(N5CC6CC6C5)ccc4C3)nc3c2[S+]([O-])CC3)cn1 (centres unmarked) [Compound 223] | 11.3% |
| C[C@H]1c2ccc(N3CCCC3)cc2CCN1c1nc2c(c(Nc3cnn(C)c3)n1)[S+]([O-])CC2 (some centres unmarked) [Compound 207] | 30.8% |
| Nc1nc2cc(Cl)ccc2c2c1CN(c1nc3c(c(NC4(CO)CCC4)n1)[S+]([O-])CC3)CC2 (centres unmarked) [Compound 102] | -0.08% |
| COC[C@@H](CO)Nc1nc(N2CCc3cc(N4CCCC4)ccc3C2)nc2c1[S+]([O-])CC2 (some centres unmarked) [Compound 199] | -0.51% |
| [O-][S+]1CCc2nc(N3CCc4cc(N5CCCC5)cc(F)c4C3)nc(NC3(CO)CCC3)c21 (centres unmarked) [Compound 182] | 3.68% |
| [O-][S+]1CCc2nc(N3CCc4cc(N5CC6(COC6)C5)ccc4C3)nc(NC3(CO)CCC3)c21 (centres unmarked) [Compound 164] | 6.23% |
| [O-][S+]1CCc2nc(N3CCc4cc(-c5ncco5)ccc4C3)nc(NC3(CO)CCC3)c21 (centres unmarked) [Compound 84] | 32.9% |
| [O-][S+]1CCc2nc(N3CCc4cc(Cl)ccc4C3)nc(Nc3ccc(CCO)cc3)c21 (centres unmarked) [Compound 139] | 16.2% |
| O=C(O)Cc1ccc(Nc2nc(N3CCc4cc(Cl)ccc4C3)nc3c2[S@@+]([O-])CC3)cc1 [Compound 128] | -0.97% |
| Cn1c2c(c3ccc(Cl)cc3c1=O)CCN(c1nc3c(c(NC4(CO)CCC4)n1)[S+]([O-])CC3)C2 (centres unmarked) [Compound 98] | -1.71% |
| C[C@H]1c2ccc(N3CCCC3)cc2CCN1c1nc2c(c(Nc3ccnn3CCO)n1)[S+]([O-])CC2 (some centres unmarked) [Compound 219] | 6.98% |
| C[C@H]1c2ccc(N3CCCC3)cc2CCN1c1nc2c(c(Nc3cnn(CCC#N)c3)n1)[S+]([O-])CC2 (some centres unmarked) [Compound 220] | 13.8% |
| [O-][S+]1CCc2nc(N3CCc4cc(-c5cnco5)ccc4C3)nc(NC3(CO)CCC3)c21 (centres unmarked) [Compound 85] | 41.7% |

same assay, conditions: read-out: Cell Inhibition % @10 nM, 10 nM, Flpin-293-PDE4B2 cells

| Structure (SMILES) | inhibition at 0.01 µM |
| --- | --- |
| [O-][S+]1CCc2nc(N3CCc4ccc(Cl)cc4CC3)nc(NC3(CO)CCC3)c21 (centres unmarked) [Compound 34] | 14% |
| [O-][S+]1CCc2nc(N3Cc4ccc(Br)cc4C3)nc(NC3(CO)CCC3)c21 (centres unmarked) [Compound 59] | 42.6% |
| [O-][S+]1CCc2nc(N3CCc4nc(Br)sc4C3)nc(NC3(CO)CCC3)c21 (centres unmarked) [Compound 63] | 31.1% |
| [O-][S+]1CCc2nc(N3CCc4cccc(Cl)c4C3)nc(NC3(CO)CCC3)c21 (centres unmarked) [Compound 21] | 18.8% |
| NC(=O)c1ccc2c(c1)CCN(c1nc3c(c(NC4(CO)CCC4)n1)[S+]([O-])CC3)C2 (centres unmarked) [Compound 75] | 24.9% |
| [O-][S+]1CCc2nc(N3CCc4c(c(NCCO)nc5cc(Cl)ccc45)C3)nc(NC3(CO)CCC3)c21 (centres unmarked) [Compound 103] | 38.9% |
| [O-][S+]1CCc2nc(N3CCc4cc(N5C[C@H]6COC[C@H]6C5)ccc4C3)nc(NC3(CO)CCC3)c21 (some centres unmarked) [Compound 178] | 68% |
| C[C@H]1c2ccc(N3CCC(F)(F)C3)cc2CCN1c1nc2c(c(NC3(CO)CCC3)n1)[S+]([O-])CC2 (some centres unmarked) [Compound 224] | 44.4% |
| [O-][S+]1CCc2nc(N3CCc4cc(N5CC(F)(F)C5)ccc4C3)nc(NC3(CO)CCC3)c21 (centres unmarked) [Compound 88] | 28.8% |
| CN1CCN(c2ccc3c(c2)CCN(c2nc4c(c(NC5(CO)CCC5)n2)[S+]([O-])CC4)C3)C1=O (centres unmarked) [Compound 86] | 63.1% |
| [O-][S+]1CCc2nc(N3CC[C@@H]4c5cc(Cl)ccc5OC[C@H]4C3)nc(NC3(CO)CCC3)c21 (some centres unmarked) [Compound 108] | 37.4% |
| Cn1cc(Nc2nc(N3CCc4cc(N5CC6CC6C5)ccc4C3)nc3c2[S+]([O-])CC3)cn1 (centres unmarked) [Compound 223] | 73.7% |
| C[C@H]1c2ccc(N3CCCC3)cc2CCN1c1nc2c(c(Nc3cnn(C)c3)n1)[S+]([O-])CC2 (some centres unmarked) [Compound 207] | 94.4% |
| Nc1nc2cc(Cl)ccc2c2c1CN(c1nc3c(c(NC4(CO)CCC4)n1)[S+]([O-])CC3)CC2 (centres unmarked) [Compound 102] | 35.9% |
| COC[C@@H](CO)Nc1nc(N2CCc3cc(N4CCCC4)ccc3C2)nc2c1[S+]([O-])CC2 (some centres unmarked) [Compound 199] | 8.04% |
| [O-][S+]1CCc2nc(N3CCc4cc(N5CCCC5)cc(F)c4C3)nc(NC3(CO)CCC3)c21 (centres unmarked) [Compound 182] | 40.6% |
| [O-][S+]1CCc2nc(N3CCc4cc(N5CC6(COC6)C5)ccc4C3)nc(NC3(CO)CCC3)c21 (centres unmarked) [Compound 164] | 20% |
| [O-][S+]1CCc2nc(N3CCc4cc(-c5ncco5)ccc4C3)nc(NC3(CO)CCC3)c21 (centres unmarked) [Compound 84] | 97% |
| [O-][S+]1CCc2nc(N3CCc4cc(Cl)ccc4C3)nc(Nc3ccc(CCO)cc3)c21 (centres unmarked) [Compound 139] | 78.6% |
| O=C(O)Cc1ccc(Nc2nc(N3CCc4cc(Cl)ccc4C3)nc3c2[S@@+]([O-])CC3)cc1 [Compound 128] | 6.68% |
| Cn1c2c(c3ccc(Cl)cc3c1=O)CCN(c1nc3c(c(NC4(CO)CCC4)n1)[S+]([O-])CC3)C2 (centres unmarked) [Compound 98] | 46.7% |
| C[C@H]1c2ccc(N3CCCC3)cc2CCN1c1nc2c(c(Nc3ccnn3CCO)n1)[S+]([O-])CC2 (some centres unmarked) [Compound 219] | 32.6% |
| C[C@H]1c2ccc(N3CCCC3)cc2CCN1c1nc2c(c(Nc3cnn(CCC#N)c3)n1)[S+]([O-])CC2 (some centres unmarked) [Compound 220] | 73.4% |
| [O-][S+]1CCc2nc(N3CCc4cc(-c5cnco5)ccc4C3)nc(NC3(CO)CCC3)c21 (centres unmarked) [Compound 85] | 97% |

same assay, conditions: read-out: Cell Inhibition % @100 nM, 100 nM, Flpin-293-PDE4B2 cells

| Structure (SMILES) | inhibition at 0.1 µM |
| --- | --- |
| [O-][S+]1CCc2nc(N3CCc4ccc(Cl)cc4CC3)nc(NC3(CO)CCC3)c21 (centres unmarked) [Compound 34] | 62% |
| [O-][S+]1CCc2nc(N3Cc4ccc(Br)cc4C3)nc(NC3(CO)CCC3)c21 (centres unmarked) [Compound 59] | 85.8% |
| [O-][S+]1CCc2nc(N3CCc4nc(Br)sc4C3)nc(NC3(CO)CCC3)c21 (centres unmarked) [Compound 63] | 76.6% |
| [O-][S+]1CCc2nc(N3CCc4cccc(Cl)c4C3)nc(NC3(CO)CCC3)c21 (centres unmarked) [Compound 21] | 79.2% |
| NC(=O)c1ccc2c(c1)CCN(c1nc3c(c(NC4(CO)CCC4)n1)[S+]([O-])CC3)C2 (centres unmarked) [Compound 75] | 51.4% |
| [O-][S+]1CCc2nc(N3CCc4c(c(NCCO)nc5cc(Cl)ccc45)C3)nc(NC3(CO)CCC3)c21 (centres unmarked) [Compound 103] | 95.4% |
| [O-][S+]1CCc2nc(N3CCc4cc(N5C[C@H]6COC[C@H]6C5)ccc4C3)nc(NC3(CO)CCC3)c21 (some centres unmarked) [Compound 178] | 98.9% |
| C[C@H]1c2ccc(N3CCC(F)(F)C3)cc2CCN1c1nc2c(c(NC3(CO)CCC3)n1)[S+]([O-])CC2 (some centres unmarked) [Compound 224] | 98.9% |
| [O-][S+]1CCc2nc(N3CCc4cc(N5CC(F)(F)C5)ccc4C3)nc(NC3(CO)CCC3)c21 (centres unmarked) [Compound 88] | 93.5% |
| CN1CCN(c2ccc3c(c2)CCN(c2nc4c(c(NC5(CO)CCC5)n2)[S+]([O-])CC4)C3)C1=O (centres unmarked) [Compound 86] | 97.8% |
| [O-][S+]1CCc2nc(N3CC[C@@H]4c5cc(Cl)ccc5OC[C@H]4C3)nc(NC3(CO)CCC3)c21 (some centres unmarked) [Compound 108] | 95.1% |
| Cn1cc(Nc2nc(N3CCc4cc(N5CC6CC6C5)ccc4C3)nc3c2[S+]([O-])CC3)cn1 (centres unmarked) [Compound 223] | 99.2% |
| C[C@H]1c2ccc(N3CCCC3)cc2CCN1c1nc2c(c(Nc3cnn(C)c3)n1)[S+]([O-])CC2 (some centres unmarked) [Compound 207] | 100% |
| Nc1nc2cc(Cl)ccc2c2c1CN(c1nc3c(c(NC4(CO)CCC4)n1)[S+]([O-])CC3)CC2 (centres unmarked) [Compound 102] | 95.5% |
| COC[C@@H](CO)Nc1nc(N2CCc3cc(N4CCCC4)ccc3C2)nc2c1[S+]([O-])CC2 (some centres unmarked) [Compound 199] | 61.6% |
| [O-][S+]1CCc2nc(N3CCc4cc(N5CCCC5)cc(F)c4C3)nc(NC3(CO)CCC3)c21 (centres unmarked) [Compound 182] | 98% |
| [O-][S+]1CCc2nc(N3CCc4cc(N5CC6(COC6)C5)ccc4C3)nc(NC3(CO)CCC3)c21 (centres unmarked) [Compound 164] | 61.1% |
| [O-][S+]1CCc2nc(N3CCc4cc(-c5ncco5)ccc4C3)nc(NC3(CO)CCC3)c21 (centres unmarked) [Compound 84] | 101% |
| [O-][S+]1CCc2nc(N3CCc4cc(Cl)ccc4C3)nc(Nc3ccc(CCO)cc3)c21 (centres unmarked) [Compound 139] | 102% |
| O=C(O)Cc1ccc(Nc2nc(N3CCc4cc(Cl)ccc4C3)nc3c2[S@@+]([O-])CC3)cc1 [Compound 128] | 25.4% |
| Cn1c2c(c3ccc(Cl)cc3c1=O)CCN(c1nc3c(c(NC4(CO)CCC4)n1)[S+]([O-])CC3)C2 (centres unmarked) [Compound 98] | 95.8% |
| C[C@H]1c2ccc(N3CCCC3)cc2CCN1c1nc2c(c(Nc3ccnn3CCO)n1)[S+]([O-])CC2 (some centres unmarked) [Compound 219] | 66.3% |
| C[C@H]1c2ccc(N3CCCC3)cc2CCN1c1nc2c(c(Nc3cnn(CCC#N)c3)n1)[S+]([O-])CC2 (some centres unmarked) [Compound 220] | 100% |
| [O-][S+]1CCc2nc(N3CCc4cc(-c5cnco5)ccc4C3)nc(NC3(CO)CCC3)c21 (centres unmarked) [Compound 85] | 101% |
